Results taken from patent publication US9303076B2, “Cell-penetrating peptides and uses thereof” (Hoffmann-La Roche Inc., priority 2010, dated 2016).

Tested on: human Aha1 mRNA
Assay: siRNA transfection in the presence of serum
Format: cell-based
Conditions: serum-containing medium
Protocol: NRTN was analyzed for its ability to transfect siRNA duplexes in the absence (A) and presence (B) of serum in the transfection medium. The experimental approach was the same as in FIG. 3. The assay was either carried out in normal RPMI 1640 growth medium containing 10% FCS (B) or for three hours in OptiMEM reduced serum medium followed by change of the medium back to normal growth medium (A). The mRNA values obtained at 1 μM were set to 100% to show dose dependent effects. Aha1 siRNA is shown as black filled squares; luciferase siRNA is shown as non-filled circles.
Most of the assays described herein were performed under the “standard in vitro conditions” for the detection of peptide-mediated transfection that are well established in the art (see, e.g., Simeoni, F. et al. (2003) Nucleic Acids Res. 31, 2717-2724; Richard, J. P. et al. (2005) J. Biol. Chem. 280, 15300-15306; Abes, R. et al. (2007) Biochem. Soc. Trans. 35, 775-779; Kumar, P. et al. (2007) Nature 448, 39-43; Mueller, J. et al. (2008) Bioconjug. Chem. 19, 2363-2374; Sugita, T. et al. (2008) Br. J. Pharmacol. 153, 1143-1152). Accordingly, the incubation for the initial “transfection step” is performed under basically serum free conditions. The addition of serum at this step interferes with the transfection ability of the CPPs (cf. FIG. 13; see also Ignatovich, I. A. et al. (2003), supra). […]

## GAAEAAARVYDLGLRRLRQRRRLRRERVRA (NRTN peptide sequence; listed as Homo sapiens) [peptide derived from human neurturin]
  transfection in the presence of medium with reduced serum concentration: can still mediate transfection
